Here are results for 5 compounds from patent US6900225B2, “Quinolonecarboxylic acid derivative” (Daiichi Pharmaceutical Co., Ltd., priority 2001, dated 2005).

SMILES strings stand for the structures. ≈ marks a conversion by molar mass, not a printed value. Entries after “also recorded” stand apart in the source; their conditions may differ. Counter-ions that a name gives are not always drawn.

The test system of one data set is Slc:ddY mice. Nature of the data set: Central toxicity after cisternal administration, alone or combined with biphenylacetic acid. Format: in vivo. Particulars: 5 μg/mouse. The procedure:
Slc:ddY mice (male; 3 weeks old) were used in groups of ten. Compound (1) was dissolved in distilled water in order to prepare injections, and the resultant solution was cisternally administered in a volume of […]. To the members of the group where compound (1) and biphenylacetic acid were used in combination, biphenylacetic acid (400 mg/kg) was perorally administered first, and 30 minutes following the administration, compound (1) was cisternally administered in a manner similar to that employed for the single use of compound (1).

For data set [1], the system named is Str. faecalis, ATCC 19433. Nature of the data set: Antibacterial activity (MIC), Japanese Society of Chemotherapy standard method. It is filed as cell-based. As to conditions: Enterococcus faecalis, ATCC19433. As to the method: (§1) Antibacterial activity was investigated by comparing compound (1) with comparative compounds B and C (see next page). This test was performed according to the standard method recommended by Japanese Society of Chemotherapy.

The next data set concerns E. coli, NIHJ. The data set is described as above. Format: cell-based. Particulars: Escherichia coli. As to the method: as §1
In the next data set the test system is Ps. aeruginosa, 32104. Described as above. It is filed as cell-based. Particulars: Pseudomonas aeruginosa. As to the method: as §1
The test system of a further data set is S. epidermidis, 56500. Described as above. It is filed as cell-based. As to conditions: Staphylococcus epidermidis. The procedure:
as §1

For another data set, the system named is Ps. aeruginosa, 32121. The data set is described as above. Format: cell-based. As to conditions: Pseudomonas aeruginosa. The procedure: as §1
For the next data set, the system named is Ser. marcescens, 10100. Described as above. It is filed as cell-based. As to conditions: Serratia marcescens. As to the method: as §1
For another data set, the system named is S. aureus, 209P. The description is as above. It is filed as cell-based. Particulars: Staphylococcus aureus. The procedure: as §1
A further data set has as its system Pr. vulgaris, 08601. Described as above. Format: cell-based. Particulars: Proteus vulgaris. The procedure:
as §1

Another data set deals with Balb/c mice. In words: Phototoxicity: intravenous administration, then UV-A exposure. Format: in vivo. Particulars: intravenous 100 mg/kg, UV-A 20 J/cm^2 for four hours. The procedure: Groups of Balb/c mice (female; 5 weeks old), each group consisting of 5-6 mice, were used in the test. After compound (1) was intravenously administered to each mouse, the mouse was exposed to long-wavelength UV light (UV-A) (20 J/cm^2) for four hours. Thereafter, the auricle was visually observed for 96 hours. Subsequently the mouse was sacrificed for examination of the tissue. […] Thus, compound (1) is a very safe compound, being free from phototoxicity, which is often observed with quinolone-based antibacterial agents.

Data set [2] deals with methicillin-resistant Staphylococcus aureus (MRSA) strain 7866. Nature of the data set: Infection-preventing effect on mouse sepsis model (MRSA). Particulars: Slc:ddY mice, intraperitoneal MRSA 7866 1.07×10^8 CFU/mouse, single tail vein injection. It is filed as in vivo. The procedure:
(§2) Groups of Slc:ddY mice, each group consisting of 7 mice, were used in the test. The mice were intraperitoneally inoculated with methicillin-resistant Staphylococcus aureus (MRSA) strain 7866 (1.07×10^8 CFU/mouse) or E. coli strain E77156 (8.08×10^7 CFU/mouse). Compound (1) was given as a single injection into the tail vein of each mouse immediately after infection. On the basis of the survival count on day 7 after infection, 50% efficacy was calculated using the probit method, to thereby evaluate the efficacy.

Data set [3] is described as follows: Moisture absorption/desorption (moisture absorption analyzer, weight change at 5-95% RH). As to conditions: 25° C., relative humidity 5-95% RH; monohydrochloride monohydrate. Format: physicochemical. The procedure: Moisture absorption/desorption of compound (1) was investigated by using samples each weighing approximately 10 mg and a moisture absorption analyzer manufactured by VTI (model SGA-100). The measurement was performed at 25° C., and the relative humidity was changed in the range of 5% to 95% at intervals of 5% or 10%. When the weight change of a sample is 0.03% or less within 30 minutes, the sample is considered to be in a state of equilibrium, and in this test, the longest equilibrium time was set to be 180 minutes. The weight change of each sample at different relative humidities was determined.

A further data set concerns pneumococcus SPI-13. In words: Therapeutic effect on mouse pneumonia model with pneumococcus of low penicillin sensitivity. Format: in vivo. Particulars: CBA/J mice. The procedure:
Groups of CBA/J mice, each group consisting of 5 mice, were used in the test. The mice were nasally infected with pneumococcus SPI-13 at 5.3×10^6 CFU/mouse. Compound (1) was subcutaneously administered to each mouse at doses of 7.5 mg/kg, 15 mg/kg, or 30 mg/kg, for three consecutive days from the day following infection, twice a day at an interval of 6 hours. The efficacy of compound (1) was assessed by counting the number of the intrapulmonary bacteria on the day following the final administration.

A further data set in a line: Solubility in water. It is filed as physicochemical. The text has this:
Solubility of compound (1) in water was investigated.

A further data set concerns E. coli strain E77156. In words: Infection-preventing effect on mouse sepsis model (E. coli). Format: in vivo. Particulars: Slc:ddY mice, intraperitoneal E. coli E77156 8.08×10^7 CFU/mouse, single tail vein injection. As to the method: as §2
The nature of data set [4]: Storage stability for one week (heat, humidity, light), residual amount by liquid chromatography. It is filed as physicochemical. As to the method:
Compound (1) (1.5 mg) was stored for one week under the following conditions: (1) in a sealed bottle at 70° C., (2) in an open-air state at 50° C., 75% RH (NaCl), or (3) irradiation with light at 100,000 lx·h (2,500 lx×40 h). Subsequently, the residual amount of compound (1) was quantitatively determined by means of liquid chromatography.

The test system of data set [5] is arthrodial cartilage of young beagles. Nature of the data set: Articular toxicity in young beagles, peroral for eight days. It is filed as in vivo. As to conditions: 7.5 mg/kg, 15 mg/kg and 30 mg/kg. The text has this: Groups of young beagles (male; 3-4 months old), each group consisting of 3 dogs, were used in the test. Compound (1) was perorally administered to each dog for eight days. Thereafter, important diarthroses were pathologically examined. […] Thus, articular toxicity of compound (1) is quite weak and insignificant, proving that compound (1) is a very safe compound.

Data set [6] is described as follows: Stability of acid addition salts of compound (1a) under various levels of humidity. Particulars: high-humidity conditions.
[7] abbreviates: combined: biphenylacetic acid 400 mg/kg perorally 30 minutes before cisternal administration.
The mark [8] stands for this setting: solo cisternal administration, groups of ten.

As to `COc1c(N2C[C@@H](N)[C@@H](C)C2)c(F)cc2c(=O)c(C(=O)O)cn([C@@H]3C[C@@H]3F)c12` [Comparative Compound A, reference compound], the Death result in the data set on Slc:ddY mice (setting [7]) is listed as “two”. For the same compound, in the data set on Slc:ddY mice (setting [8]), the Death entry is on record as “one” and the Spasm entry was “two”.

Turning to `CCOc1c(N2C[C@@H](N)C3(CC3)C2)c(F)cc2c(=O)c(C(=O)O)cn([C@@H]3C[C@@H]3F)c12` [Comparative Compound B], the MIC (commonly the smallest concentration in the dilution series that meets the test's criterion for growth inhibition) in data set [1] was found to be 0.2 µg/mL (≈ 0.477 µM); with E. coli, NIHJ, 0.006 µg/mL (≈ 0.0143 µM); in the data set on Ps. aeruginosa, 32104 it was 0.39 µg/mL (≈ 0.93 µM); in the data set on S. epidermidis, 56500 it was 0.1 µg/mL (≈ 0.238 µM); with Ps. aeruginosa, 32121, 0.2 µg/mL (≈ 0.477 µM); in the data set with Ser. marcescens, 10100, 0.2 µg/mL (≈ 0.477 µM). The MIC in the data set with S. aureus, 209P was determined as 0.025 µg/mL (≈ 0.0596 µM); against Pr. vulgaris, 08601 it was 0.05 µg/mL (≈ 0.119 µM).

In the case of `CCOc1c(N2CC(C)C(N)C2)c(F)cc2c(=O)c(C(=O)O)cn([C@@H]3C[C@@H]3F)c12` (stereo partly shown) [Comparative Compound C], the MIC in data set [1] amounted to 0.39 µg/mL (≈ 0.957 µM); against E. coli, NIHJ it was 0.025 µg/mL (≈ 0.0614 µM); against Ps. aeruginosa, 32104, 0.78 µg/mL (≈ 1.91 µM); against S. epidermidis, 56500, 0.2 µg/mL (≈ 0.491 µM); in the data set on Ps. aeruginosa, 32121 it was 0.39 µg/mL (≈ 0.957 µM); against Ser. marcescens, 10100, 0.2 µg/mL (≈ 0.491 µM). The MIC stood at 0.05 µg/mL (≈ 0.123 µM) against S. aureus, 209P and 0.05 µg/mL (≈ 0.123 µM) against Pr. vulgaris, 08601.

On to `COc1c(N2C[C@@H](N)C3(CC3)C2)c(F)cc2c(=O)c(C(=O)O)cn([C@@H]3C[C@@H]3F)c12` [Compound (1), (−)-7-[(7S)-7-amino-5-azaspiro[2.4]heptan-5-yl]-6-fluoro-1-[(1R, 2S)-2-fluoro-1-cyclopropyl]-1,4-dihydro-8-methoxy-4-oxo-3-quinolinecarboxylic acid monohydrochloride monohydrate], for which the MIC is 0.1 µg/mL in data set [1]; not above 0.003 µg/mL against E. coli, NIHJ; 0.2 µg/mL against Ps. aeruginosa, 32104; 0.05 µg/mL with S. epidermidis, 56500; 0.05 µg/mL against Ps. aeruginosa, 32121; 0.05 µg/mL in the data set with Ser. marcescens, 10100. The MIC was 0.006 µg/mL against S. aureus, 209P and 0.012 µg/mL against Pr. vulgaris, 08601. For the same compound, in the data set on Balb/c mice, the “Phototoxicity: abnormality of auricle (visual observation 96 hours, tissue examination)” value was “no abnormality was observed”. Besides, the “50% efficacy (probit method, survival count on day 7)” value stood at 3.34 mg/kg in data set [2] and 0.57 mg/kg in the data set with E. coli strain E77156. Besides, the “Moisture absorption/desorption (weight change)” value in data set [3] was “neither absorbing or desorbing moisture; also recorded: do not absorb or desorb moisture”. Also, the Death result in the data set with Slc:ddY mice (setting [7]) and in the data set with Slc:ddY mice (setting [8]) was “neither spasm nor death” each time. Moreover, the Spasm entry in the data set on Slc:ddY mice (setting [7]) and in the data set with Slc:ddY mice (setting [8]) was “neither spasm nor death” throughout. The results for the “Number of intrapulmonary bacteria” value in the data set with pneumococcus SPI-13 (subcutaneous 7.5 mg/kg twice a day for three days), in the data set with pneumococcus SPI-13 (subcutaneous 15 mg/kg twice a day for three days) and in the data set on pneumococcus SPI-13 (subcutaneous 30 mg/kg twice a day for three days) were “approximately half that of the control”, “below the detection limit” and “below the detection limit”, respectively. Further, the solubility (in general, how much of the substance goes into solution per volume) in the data set “Solubility in water” is not below 100 mg/mL. Moreover, in data set [4] (light 100,000 lx·h (2,500 lx×40 h)), the “Stability when exposed to light, compared with compound No. 26bb” value is reported as “superior to that of compound No. 26bb”. The “Stability (residual amount by liquid chromatography)” value in data set [4] (one week: sealed bottle 70° C., open 50° C., 75% RH, light 100,000 lx·h) is listed as “remained stable, not undergoing any decomposition”. In [5], the “Formation of blebs or erosions in arthrodial cartilage” value is reported as “not at all observed”.

With `COc1c(N2C[C@@H](N)C3(CC3)C2)c(F)cc2c(=O)c(C(=O)O)cn([C@@H]3C[C@@H]3F)c12.CS(=O)(=O)O` [methanesulfonic acid salt, Methanesulfonic Acid Salt of (−)-7-{(7S)-7-amino-5-azaspiro[2.4]heptan-5-yl}-6-fluoro-1-[(1R, 2S)-2-fluoro-1-cyclopropyl]-1,4-dihydro-8-methoxy-4-oxo-3-quinolinecarboxylic acid], in data set [6], the “Stability under various levels of humidity” value was “tendency toward moisture absorption”.
